Experimental data reported in patent US20040167226A1, “Methods for the treatment of pain and traumatic injury using benzamides and compositions containing the same” (priority 2002, published 2004).
Entries after “also recorded” stand apart in the source; their conditions may differ.

Tests used:
[1] = tested on: dorsal hemisection spinal cord injury; assay: Spinal cord injury, T8 dorsal hemisection / over dorsal hemisection, BBB locomotor score; assay type: in vivo, Sprague-Dawley rats; conditions: rats
Protocol: Compound A was tested in both the rat dorsal hemisection (Guth, L. et al. (1980), J. Neurosurgery 52: 73-86) and contusion models (Scheff, S. W. (2003), J. Neurotrauma 20: 179-193) for evaluation of efficacy. These models are widely used in the field of spinal cord injury and replicate many of the pathological aspects found in humans who have sustained a spinal cord injury. Rats were subjected to an experimental spinal cord injury at T8, and were given Compound A shortly thereafter. Behavioral tests to assess the locomotion deficits were performed after the lesion. At the end of the experiment, animals were sacrificed and the spinal cord was collected for histopathological analysis. […] Histological assessment of the tissue at the site of injury was also made in both the drug treated and untreated group. In particular, subsequent to the behavioral measurement, spinal cord tissue from each animal was obtained and serial transverse tissue sections were stained with either anti-neurofilament antibody or antibodies specific for the inflammatory markers, tumor necrosis factor alpha (TNFα) and for the inducible form of nitric oxide synthetase (iNOS), followed by incubation with Alexa Fluor®-conjugated secondary antibodies.
Female rats (Sprague-Dawley, 250-300 g) were purchased from Charles River. One week before spinal cord injury, the animals were both trained and had baseline measures taken on a locomotor behavioral test, the BBB test (Beattie Basso Bresnahan method) (Basso, D. M. et al. (1995), J. Neurotrauma 12(1): 1-21).
The BBB score is a 21-point scale representing 21 stages of locomotor recovery after spinal cord injury. The scale is based on unique combinations of scored behaviors, ranked according to time of appearance after injury. The score can be divided into three parts: from 0-8, the scores emphasize voluntary movements of hindlimb joints; from 8-14, the scores represent standing and stepping with progressively better forelimb-hindlimb coordination; from 15-21, the scores indicate greater strength and better foot placement and balance. […]

[2] = Brain-blood distribution of Compound A in the squirrel monkey; assay type: in vivo; conditions: brain / whole blood, twice-daily 10 mg/kg po for 5 weeks, 24 h post-dose, n = 12, read-out: Brain/Blood Ratio (Mean ± SD)
Protocol: Blood-brain distribution of Compound A was assessed in the mouse, rat, and squirrel monkey by determining the concentrations of Compound A in blood and brain tissue at specific times post dose. Rats and mice received a single po dose of 30 mg/kg. The monkeys received a twice-daily 10 mg/kg po dose of Compound A for a total of 5 weeks prior to sacrifice. Brain to blood ratios for Compound A, as shown below in Table 4, show high penetration of the blood-brain barrier.

[3] = Solubility of Compound A in dosing vehicles; assay type: physicochemical
Protocol: PEG-200 formulation for i.p. administration of Compound A: PEG-200 was diluted in deionized destilled water to give a final concentration of 75% (volume/volume). Compound A was weighed to yield a final concentration of 10 mg/ml in 75% PEG-200 vehicle and sonicated for 12×30 seconds with 5 second intervals on ice to generate a Compound A suspension. 100 μL of either Compound A suspension or control vehicle (75% PEG-200) per 20 grams of mice (body weight) was administered via i.p., thus yielding a dose of 50 mg/kg (body weight).
Cremophor EL/alcohol/saline formulation for i.p. administration of Compound A: 40 mg/ml, 20 mg/ml or 10 mg/ml of Compound A was dissolved in Cremophor EL/alcohol (90:10) (volume:volume), respectively, by brief sonication on ice, then freshly diluted 10-fold in saline solution (9% Cremophor EL; 1% ETOH and 90% saline) to give a final concentration of 4 mg/ml, 2 mg/ml and 1 mg/ml, respectively, before injection. 100 μL of Compound A solution at a concentration of […] was administered via i.p. to mice (per 20 grams of body weight), thus yielding a dose of 20 mg/kg (body weight), 10 mg/kg (body weight), and 5 mg/kg (body weight), respectively. The control vehicle was 9% Cremophor EL/1% ETOH/90% saline. […]

## CC(=O)Nc1ccc(C(=O)NC(C)(C)C)cc1 [Compound A, N-tert-butyl-4-acetamidobenzamide]
[1]; SCI Study No. 1, 14 day dorsal hemisection (1.5 mm), i.p. BID 5 days, 75% PEG200 formulation
  neurological function, BBB score: significant improvement in neurological function
[1]; SCI Study No. 2, 21 day over dorsal hemisection (2 mm), 20 mg/kg BID i.p. 5 days, 75% PEG200 formulation
  neurological function, BBB score: significant improvement in neurological function
[1]; SCI Study No. 3, 5 week over dorsal hemisection, 20 mg/kg BID i.p. 5 days, 50% PEG400/25% ETOH/25% dH2O, 20 mg/kg
  neurological function, BBB score: significant improvement in neurological function; also recorded: robust acute and long-term effects up to 5 weeks
[2]
  Kp at 24 h: 0.88 ± 0.09
[3]; 9% Cremophor EL, 1% ETOH, 90% saline vehicle
  solubility in 9% Cremophor EL, 1% ETOH and 90% saline: quite soluble
[3]; 75% PEG-200 vehicle
  solubility in 75% PEG-200: not soluble
